Earlier results, collected in PubChem BioAssay AID1259409 (Chemical Carcinogenesis Research Information System (CCRIS), 2018).
Where “and” joins values, the source holds several entries; their conditions need not be identical. Equal values may be shown once.

Tested on: rodent chemically induced tumor inhibition, incidence and multiplicity
Test: CCRIS tumor inhibitor studies

## Oc1c(F)c(F)cc(F)c1F
Carcinogen: BENZO[A]PYRENE, 50-32-8, Dose [Inhibitor]: 0.03 MMOL/G OF DIET DAILY STARTING 7 D BEFORE AND CONTINUING THROUGH 3 D AFTER CARCINOGEN TREATMENT FOLLOWED BY OBSERVAT, Route [Inhibitor]: ORAL, Species: MOUSE, Strain/Sex: ICR/FEMALE, Target Tissue: Type of Lesion: FORESTOMACH: NEOPLASM, Dose [Carcinogen]: 1 MG IN 0.2 ML CORN OIL 2/WK FOR 4 WK, Promoter: NONE USED
  tumour outcome (control, treated, inhibition, significance): 100%, 95%, 5%, not significant and 97%, 84%, 13%, not significant

## II
Carcinogen: N-METHYL-N-NITROSOUREA [684-93-5], Dose [Inhibitor]: 0.05% I2 IN DRINKING WATER, 2 WKS BEFORE CARCINOGEN AND FOR 26 WKS AFTER, Route [Inhibitor]: DRINKING WATER, Species: RAT, Strain/Sex: SPRAGUE-DAWLEY/FEMALE, Target Tissue: Type of Lesion: MAMMARY GLAND: CARCINOMA, Dose [Carcinogen]: 50 MG/KG BW ONCE AT 7 WKS OF AGE (IN SALINE SOLUTION)
  outcome: 8/11 (73%) vs 3/10 (30%) at 16 wks, p<0.05
Carcinogen: N-Methyl-N- nitrosourea (684-93-5), Dose [Inhibitor]: 0, 0.05% in drinking water for a total of 18 wks, Route [Inhibitor]: Oral, Species: Rat, Strain/Sex: Sprague-Dawley, female, Target Tissue: Type of Lesion: Mammary gland, Dose [Carcinogen]: 50 mg, study duration 16 wks after carcinogen
  outcome: 100%, 62.5%, p<0.05

## CC[C@H](C)/C=C/C1=CC2=C(Cl)C(=O)[C@@]3(C)OC(=O)C(C(=O)[C@@H](C)[C@@H](C)O)=C3C2=CO1
Carcinogen: 7,12-DIMETHYLBENZ[A]ANTHRACENE, 57-97-6, Dose [Inhibitor]: 0, 2 UMOL 2/WK FOR 18 WK APPLIED 30 MIN PRIOR TO EACH PROMOTER DOSE BEGINNING 1 WK POST CARCINOGEN DOSE (STUDY DURATION:, Route [Inhibitor]: DERMAL, Species: MOUSE, Strain/Sex: ICR/FEMALE, Target Tissue: Type of Lesion: SKIN: PAPILLOMA, Dose [Carcinogen]: 50 UG ONCE, Promoter: 12-O-TETRADECANOYLPHORBOL-13-ACETATE, 16561-29-8
  tumour outcome (control, treated, inhibition, significance): 100%, 33%, 67%, not calculated

## CCCC[C@@H](C)[C@@H](OC(=O)C[C@@H](CC(=O)O)C(=O)O)[C@H](C[C@@H](C)C[C@H](O)CCCC[C@@H](O)C[C@H](O)[C@H](C)N)OC(=O)C[C@@H](CC(=O)O)C(=O)O
Carcinogen: N-METHYL-N'-NITRO-NITROSOGUANIDINE, 13830-58-5, Dose [Inhibitor]: 0, 3.2 PPM IN FEED FOR 42 WK BEGINNING 1 MO POST CARCINOGEN TREATMENT (STUDY DURATION: 64 WK), Route [Inhibitor]: ORAL, Species: FISH, Strain/Sex: SHASTA RAINBOW TROUT/MALE,FEMALE, Target Tissue: Type of Lesion: KIDNEY: TUMOR, Dose [Carcinogen]: 35 PPM IN WATER FOR 30 MIN, Promoter: NONE
  tumour outcome (control, treated, inhibition, significance): 19%, 14%, 26%, not significant
Carcinogen: N-METHYL-N'-NITRO-NITROSOGUANIDINE, 13830-58-5, Dose [Inhibitor]: 0, 3.2 PPM IN FEED FOR 42 WK BEGINNING 1 MO POST CARCINOGEN TREATMENT (STUDY DURATION: 64 WK), Route [Inhibitor]: ORAL, Species: FISH, Strain/Sex: SHASTA RAINBOW TROUT/MALE,FEMALE, Target Tissue: Type of Lesion: LIVER: TUMOR, Dose [Carcinogen]: 35 PPM IN WATER FOR 30 MIN, Promoter: NONE
  tumour outcome (control, treated, inhibition, significance): 45%, 25%, 44%, not significant
Carcinogen: N-METHYL-N'-NITRO-NITROSOGUANIDINE, 13830-58-5, Dose [Inhibitor]: 0, 3.2 PPM IN FEED FOR 42 WK BEGINNING 1 MO POST CARCINOGEN TREATMENT (STUDY DURATION: 64 WK), Route [Inhibitor]: ORAL, Species: FISH, Strain/Sex: SHASTA RAINBOW TROUT/MALE,FEMALE, Target Tissue: Type of Lesion: STOMACH: TUMOR, Dose [Carcinogen]: 35 PPM IN WATER FOR 30 MIN, Promoter: NONE
  tumour outcome (control, treated, inhibition, significance): 32%, 40%, -25%, not significant
Carcinogen: N-METHYL-N'-NITRO-NITROSOGUANIDINE, 13830-58-5, Dose [Inhibitor]: 0, 3.2 PPM IN FEED FOR 42 WK BEGINNING 1 MO POST CARCINOGEN TREATMENT (STUDY DURATION: 64 WK), Route [Inhibitor]: ORAL, Species: FISH, Strain/Sex: SHASTA RAINBOW TROUT/MALE,FEMALE, Target Tissue: Type of Lesion: SWIM BLADDER: TUMOR, Dose [Carcinogen]: 35 PPM IN WATER FOR 30 MIN, Promoter: NONE
  tumour outcome (control, treated, inhibition, significance): 54%, 44%, 18%, not significant
Carcinogen: N-METHYL-N'-NITRO-NITROSOGUANIDINE, 13830-58-5, Dose [Inhibitor]: 0, 23 PPM IN FEED FOR 42 WK BEGINNING 1 MO POST CARCINOGEN TREATMENT (STUDY DURATION: 64 WK), Route [Inhibitor]: ORAL, Species: FISH, Strain/Sex: SHASTA RAINBOW TROUT/MALE,FEMALE, Target Tissue: Type of Lesion: KIDNEY: TUMOR, Dose [Carcinogen]: 35 PPM IN WATER FOR 30 MIN, Promoter: NONE
  tumour outcome (control, treated, inhibition, significance): 19%, 13%, 32%, not significant
Carcinogen: N-METHYL-N'-NITRO-NITROSOGUANIDINE, 13830-58-5, Dose [Inhibitor]: 0, 23 PPM IN FEED FOR 42 WK BEGINNING 1 MO POST CARCINOGEN TREATMENT (STUDY DURATION: 64 WK), Route [Inhibitor]: ORAL, Species: FISH, Strain/Sex: SHASTA RAINBOW TROUT/MALE,FEMALE, Target Tissue: Type of Lesion: STOMACH: TUMOR, Dose [Carcinogen]: 35 PPM IN WATER FOR 30 MIN, Promoter: NONE
  tumour outcome (control, treated, inhibition, significance): 32%, 31%, 3%, not significant
Carcinogen: N-METHYL-N'-NITRO-NITROSOGUANIDINE, 13830-58-5, Dose [Inhibitor]: 0, 104 PPM IN FEED FOR 42 WK BEGINNING 1 MO POST CARCINOGEN TREATMENT (STUDY DURATION: 64 WK), Route [Inhibitor]: ORAL, Species: FISH, Strain/Sex: SHASTA RAINBOW TROUT/MALE,FEMALE, Target Tissue: Type of Lesion: KIDNEY: TUMOR, Dose [Carcinogen]: 35 PPM IN WATER FOR 30 MIN, Promoter: NONE
  tumour outcome (control, treated, inhibition, significance): 19%, 6%, 68%, p<0.05
Carcinogen: N-METHYL-N'-NITRO-NITROSOGUANIDINE, 13830-58-5, Dose [Inhibitor]: 0, 104 PPM IN FEED FOR 42 WK BEGINNING 1 MO POST CARCINOGEN TREATMENT (STUDY DURATION: 64 WK), Route [Inhibitor]: ORAL, Species: FISH, Strain/Sex: SHASTA RAINBOW TROUT/MALE,FEMALE, Target Tissue: Type of Lesion: LIVER: TUMOR, Dose [Carcinogen]: 35 PPM IN WATER FOR 30 MIN, Promoter: NONE
  tumour outcome (control, treated, inhibition, significance): 45%, 76%, -69%, p<0.05
Carcinogen: N-METHYL-N'-NITRO-NITROSOGUANIDINE, 13830-58-5, Dose [Inhibitor]: 0, 104 PPM IN FEED FOR 42 WK BEGINNING 1 MO POST CARCINOGEN TREATMENT (STUDY DURATION: 64 WK), Route [Inhibitor]: ORAL, Species: FISH, Strain/Sex: SHASTA RAINBOW TROUT/MALE,FEMALE, Target Tissue: Type of Lesion: STOMACH: TUMOR, Dose [Carcinogen]: 35 PPM IN WATER FOR 30 MIN, Promoter: NONE
  tumour outcome (control, treated, inhibition, significance): 32%, 12%, 62%, p<0.05 and 54%, 51%, 6%, not significant

## C=CC(C)(O)CC/C=C(\C)CCC=C(C)C (stereo not drawn)
Carcinogen: AZOXYMETHANE, 25843-45-2, Dose [Inhibitor]: 0, 5 MG/G IN DIET FOR 22 WK BEGINNING 3 D POST LAST CARCINOGEN DOSE (STUDY DURATION: 25 WK), Route [Inhibitor]: ORAL, Species: RAT, Strain/Sex: F344/MALE, Target Tissue: Type of Lesion: DUODENUM: ADENOCARCINOMA, Dose [Carcinogen]: 15 MG/KG BW 2/WK FOR 3 WK, Promoter: NONE USED
  tumour outcome (control, treated, inhibition, significance): 50%, 26%, 48%, not significant

## c1cc2ccc3ccc4ccc5cccc6c(c1)c2c3c4c56
Carcinogen: BENZO[A]PYRENE, 50-32-8, Dose [Inhibitor]: 7 UG IN 0.1 ML ACETONE 3/WK ADMINISTERED SIMULTANEOUSLY WITH CARCINOGEN FOR DURATION OF STUDY (STUDY DURATION: 368 D), Route [Inhibitor]: DERMAL, Species: MOUSE, Strain/Sex: ICR/FEMALE, Target Tissue: Type of Lesion: SKIN: PAPILLOMA, Dose [Carcinogen]: 5 UG IN 0.1 ML ACETONE 3/WK FOR DURATION OF STUDY, Promoter: NONE USED
  tumour outcome (control, treated, inhibition, significance): 14/50 (28%), 19/50 (38%), -36%, not calculated
Carcinogen: BENZO[A]PYRENE, 50-32-8, Dose [Inhibitor]: 7 UG IN 0.1 ML ACETONE 3/WK ADMINISTERED SIMULTANEOUSLY WITH CARCINOGEN FOR DURATION OF STUDY (STUDY DURATION: 368 D), Route [Inhibitor]: DERMAL, Species: MOUSE, Strain/Sex: ICR/FEMALE, Target Tissue: Type of Lesion: SKIN: SQUAMOUS CARCINOMA, Dose [Carcinogen]: 5 UG IN 0.1 ML ACETONE 3/WK FOR DURATION OF STUDY, Promoter: NONE USED
  tumour outcome (control, treated, inhibition, significance): 10/50 (20%), 10/50 (20%), 0%, not calculated
Carcinogen: BENZO[A]PYRENE, 50-32-8, Dose [Inhibitor]: 21 UG IN 0.1 ML ACETONE 3/WK ADMINISTERED SIMULTANEOUSLY WITH CARCINOGEN FOR DURATION OF STUDY (STUDY DURATION: 368 D), Route [Inhibitor]: DERMAL, Species: MOUSE, Strain/Sex: ICR/FEMALE, Target Tissue: Type of Lesion: SKIN: PAPILLOMA, Dose [Carcinogen]: 5 UG IN 0.1 ML ACETONE 3/WK FOR DURATION OF STUDY, Promoter: NONE USED
  tumour outcome (control, treated, inhibition, significance): 14/50 (28%), 20/50 (40%), -43%, not calculated
Carcinogen: BENZO[A]PYRENE, 50-32-8, Dose [Inhibitor]: 21 UG IN 0.1 ML ACETONE 3/WK ADMINISTERED SIMULTANEOUSLY WITH CARCINOGEN FOR DURATION OF STUDY (STUDY DURATION: 368 D), Route [Inhibitor]: DERMAL, Species: MOUSE, Strain/Sex: ICR/FEMALE, Target Tissue: Type of Lesion: SKIN: SQUAMOUS CARCINOMA, Dose [Carcinogen]: 5 UG IN 0.1 ML ACETONE 3/WK FOR DURATION OF STUDY, Promoter: NONE USED
  tumour outcome (control, treated, inhibition, significance): 10/50 (20%), 18/50 (36%), -80%, not calculated
